From patent US20170252362A1, “METHODS & COMPOUNDS USEFUL IN HEMATOPOIETIC STEM CELL MEDICINE” (ECOLE POLYTECHNIQUE FEDERALE DE LAUSANNE (EPFL), priority 2014, published 2017)

What was measured:
[1] = test system: hematopoietic stem and progenitor pool sizes in the bone marrow; assay: Flow cytometry analysis of hematopoietic stem and progenitor pool sizes in bone marrow of mice fed the agent; format: in vivo, mouse; conditions: for number of hematopoietic stem cells (ST-HSC / most primitive HSC) by flow cytometry: Example 8, one week treatment, FIG. 9A
Experimental: Bone marrow (BM) cells were isolated from C57Bl/6J and C57Bl/6J Ly5.1 from crushed femora and tibia. Flow cytometry analysis of hematopoietic stem and progenitor cells was performed on freshly isolated bone marrow (BM). Cell suspensions were filtered through a 70 μm cell strainer and erythroid cells were eliminated by incubation with red blood cells lysis buffer (eBioscences). Lineage-positive cells were removed with a magnetic lineage depletion kit (Miltenyi Biotech). Cell suspensions were stained with a panel of specific antibodies for stem and progenitor cells and analyzed or FACS-sorted respectively on a BD LSRII and BD FACS Aria II.
(§1) C57Bl/6J and C57Bl/6J Ly5.1 were purchased from Charles River Laboratories International and maintained in micro-isolator cages. Mice were provided continuously with sterile food, water and bedding. Nicotinamide riboside (NR) (custom synthesized as triflate salt by Novalix in Strasbourg) was supplied in the food at 0.4 g/Kg mouse and mice were treated for 1 and 4 weeks respectively.

[2] = test system: HSC activity of donor bone marrow; assay: Transplantation of BM derived from agent-treated donor mice (engraftment, blood chimerism); format: in vivo, mouse; conditions: for short-term HSC activity of transplanted BM from treated donors (blood chimerism): Example 8, FIG. 9C, compared to control group
From the text: Therefore, NR-treatment is not expected to exhaust the LT-HSC population, which is often the problem when increasing short-term HSCs and their progeny.

[3] = test system: hematopoietic progenitor compartments; assay: Colony-forming functional assay (CFUs, Methocult) on BM derived from agent-treated mice; format: in vivo, mouse
[4] = test system: blood recovery and survival of transplanted mice; assay: Survival and blood recovery of lethally irradiated, transplanted mice treated with the agent; format: in vivo, mouse; conditions: for blood recovery of post-transplanted mice (platelets, granulocytes/neutrophils): Example 8, FIG. 9D, treated recipients versus control
Experimental: Given the dependency of differentiated hematopoietic cells to the progenitor compartments, the effect of a mitochondrial membrane potential reducing agent according to the invention, in particular NR, in improving blood recovery and survival of transplanted mice was assessed. Peripheral blood count started at day 13 after transplantation, and it was repeated every 3 or 4 days.
as §1

[5] = test system: HSC mitochondrial activity; assay: In vitro HSC mitochondrial activity with JC1 and TMRM dyes; format: cell-based, mouse
From the text: The effects of NR on HSC mitochondrial activity has been assessed by measuring mitochondrial activity using JC1 (Mantel et al., 2010, Cell Cycle, 9(10), 2008-17) and TMRM dyes (Vannini et al., 2015, in preparation; Nakada et al., 2010, Nature, 468, 653-658).
The effect of agents on HSC mitochondrial activity has been assessed by measuring mitochondrial activity as described in Example 7 above.

[6] = test system: HSCs; assay: Single cell proliferation kinetics and division synchrony by time-lapse microscopy; format: cell-based, mouse; conditions: single cell level
Experimental: Furthermore, at single cell level the effect of NR on cell proliferation kinetics was determined as described previously ([…] et al., 2012, supra). […] To follow the behavior of HSCs at single cell level, cells were sorted directly into 96-well plates coated with microwell arrays. Microwells containing a single cell at the time of plating were tracked by time-lapse microscopy. Proliferation kinetics were assessed using a Zeiss Axio Observer microscope equipped with an incubator chamber, temperature and CO2 control. Images were automatically acquired every three hours over five days using the imaging analysis software of MetaMorph (Visitron, Germany). Hydrogel microwell arrays were directly casted within individual wells of a 96-well plate as described (Kobel et al., 2009, Langmuir, 25(15):8774-9; Lutolf et al., 2009, Integr Biol (Camb), 1(1):59-69). Briefly, stoichiometrically balanced aqueous solutions of multi-arm poly(ethylene glycol) (PEG), end-functionalized with thiol and vinylsulfone groups were mixed and molded against a PDMS microstamp. Upon completion of crosslinking, the stamp was removed and the hydrogel microwell array was hydrated overnight at 4° C. and then sterilized with ultraviolet light.

[7] = test system: human hematopoiesis; assay: Human hematopoiesis in humanized NSG mice fed NR-supplemented diet; format: in vivo, human CD34+ cells in NSG mice; conditions: supplemented diet for one week
From the text: NOD scid gamma (NSG) mice which are a mouse strain NOD Cg-Prkdcscid Il2rgtm1Wjl/SzJ (005557) which correspond to a mutant mouse which combines the features of the NOD/ShiLtJ background (conferring a number of deficiencies in innate immunity), the severe combined immune deficiency mutation (SCID) and an IL2 receptor gamma chain deficiency which disables cytokine signaling, were purchased from The Jackson Laboratory and bred, treated, and maintained under pathogen-free conditions in-house. New-born NSG mice were irradiated with 1Gy and 6 hours later injected intra-hepatically (IH) with 10e6 human CD34 HSCs (purified CD34+ from mobilized blood, Cellsystems Biotechnologie GmbH, Troisdorf, DE). The level of human reconstitution (% of human CD45+ cells) was analyzed 12 weeks later by FACS staining of tail vein blood samples. […] From the following day one cohort was given low fat food supplemented with NR as compared to the group treated with NA or Acipimox (n=10-12 mice/group), as indicated above, and the other cohort was given control diet. After seven days, tail vein blood was collected in EDTA tubes and mice sacrificed. Bone marrow cells were collected as described for C57BL6 mice, and both blood and bone marrow cells stained and analyzed for a panel of human lineage specific antibodies as described. […]

[8] = test system: HSC mitochondrial activity; assay: In vivo assay of HSC mitochondrial activity: TMRM flow cytometry of freshly isolated HSC from mice fed the compounds; design: species or system mouse
From the text: The effect of agents on HSC mitochondrial activity has been assessed by measuring mitochondrial activity in vivo: freshly isolated HSC from mice fed with the compounds were stained by TMRM and analyzed by flow cytometry.

[9] = test system: HSCs; assay: In vivo activation of HSC by IFN-α, cell cycle (Ki67) and ΔΨm analysis; design: species or system mouse
Experimental: In order to verify this hypothesis, cell cycle phase analyses were performed using Ki67 and Hoechst staining as described below on freshly isolated HSCs that were separated into low and high ΔΨm. […] Under homeostatic conditions, quiescent state, corresponding to ca. 70% of cells, and cycling HSCs have indistinguishable ΔΨm profiles.
A similar analysis was performed on HSCs that were activated to exit dormancy directly in vivo using interferon-alpha (IFN-α) treatment of mice (Essers et al., 2009, Nature 458, 904-908) through subcutaneous injections of IFN-α carried out 48 and 24 hours prior to cell isolation.
HSC were activated to exit dormancy by interferon-alpha (IFN-α) treatment following published protocols (Essers et al., 2009, supra). Briefly, subcutaneous injections in C57B1/6J mice were carried out with 10,000 U of IFN-α (R&D systems) 48 and 24 hours prior to bone marrow extraction. Control mice were injected with an equivalent volume of the vehicle (PBS+0.1% BSA).

[10] = test system: LT-HSC:TMRM^low cells; conditions: 100 LT-HSC:TMRM^low cells, two days differentiation conditions with FCCP
Experimental: (§2) HSCs were cultured under ‘expansion’ conditions in U-bottom 96-well plates for five days. Cultures were maintained in Stemline II (Sigma) supplemented with 10 μg/ml Heparin (Sigma), 100 ng/ml SCF (R&D Systems), 2 ng/ml Flt3 ligand (R&D), 20 ng/ml TPO (R&D Systems), 10 ng/ml FGF-1 (Invitrogen), 500 ng/ml IGFBP2 (R&D Systems), 100 ng/ml AngL-3 (R&D Systems). At the end of the culture period cells were stained with TMRM and analyzed or sorted by flow cytometry. To induce differentiation, HSCs were cultured in basal medium (Stemline II containing 100 ng/ml SCF and 2 ng/ml Flt3 ligand) supplemented with 20 ng/ml IL-3 (R&D Systems) and 100 ng/ml IL-6 (R&D Systems).
(§3) In a first series of experiments, quantitative clonal differentiation assays (short- and long-term colony forming unit (CFU) assays as described above) were used to test to which extent mitochondrial uncoupling could influence the colony forming behavior and efficiency of hematopoietic stem and progenitor cells (FIG. 4A-C).
(§4) For some experiments, 5 or 10 μM Carbonyl cyanide 4-(trifluoromethoxy) phenylhydrazone (FCCP) (Sigma) was added at the medium. FCCP stock solution was prepared by dissolving the powder in ethanol at 10 mM concentration.

[11] = test system: whole bone marrow cells; conditions: differentiation conditions, two days with FCCP
Experimental: as §2, §3, §4

[12] = test system: HSCs; conditions: CFSE labeling, culture with FCCP
Experimental: Freshly sorted LT-HSCs were incubated for 20 min at 37° C. with 1:400 CFSE stock solution (Cayman chemicals; CFSE cell division assay kit). The cells were pelleted and re-suspended in 1 ml of Stemline II (Sigma) containing 10% FBS for 20 min at 37° C. Thereafter, the cells were washed twice with 1 ml of Stemline II (Sigma) and put in culture.

[13] = test system: cultured HSCs; conditions: flow cytometry
Experimental: NADH autofluorescence was measured by flow cytometry with UV laser (ex: 350 nm, em: 460 nm).
Specifically, culture conditions that would rapidly differentiate HSCs into highly proliferative MPPs were chosen and the effect of blocking the establishment of ΔΨm on the maintenance of stemness was investigated. For that purpose, trifluorocarbonylcyanide phenylhydrazone (FCCP) which permeabilizes the inner mitochondrial membrane and disrupts its potential was used as an uncoupling agent of the electron transport from ATP generation.

[14] = test system: LT-HSC:TMRM^low cells; conditions: five days differentiation condition (SCF, Flt3, IL-3, IL-6), 5 μM FCCP, progeny transplanted
Experimental: 100 LT-HSC:TMRM^low cells were cultured for five days under differentiation-inducing conditions in the presence or absence of 5 μM FCCP. Cell progeny were transplanted in lethally irradiated recipient mice together with 2*10^6 helper cells. Peripheral blood was collected at 4, 8 and 12 and 16 weeks to determine the level of chimerism as described above.
For transplants of HSC cultured exposed to the uncoupler FCCP, 100 LT-HSC:TMRM^low cells were cultured for five days under differentiation-inducing conditions in the presence or absence of 5 μM FCCP. Cell progeny were transplanted in lethally irradiated recipient mice together with 2*10^6 helper cells. Peripheral blood was collected at 4, 8 and 12 weeks to determine the level of chimerism.

## NC(=O)c1ccc[n+]([C@@H]2O[C@H](CO)[C@@H](O)[C@H]2O)c1 [NR, nicotinamide riboside]
[1]; 1 week treatment through the food, flow cytometry
  hematopoietic stem and progenitor compartments in BM: increased cellularity is observed in all hematopoietic progenitor compartments
[1]; 4 weeks treatment through the food, flow cytometry
  hematopoietic progenitor compartments in BM: only the short-term compartment (ST-HSC) is expanded
[1]
  number of hematopoietic stem cells (ST-HSC / most primitive HSC) by flow cytometry: expanded ST-HSC compartment
[1]; short- and long-term treatment
  HSC pool: not accompanied by a reduction of the HSC pool
[2]; 1-month treated donor mice, transplantation assay
  engraftment of BM derived from treated mice: do not show engraftment advantage
[2]
  short-term HSC activity of transplanted BM from treated donors (blood chimerism): higher ST-HSC activity
[3]; 1 and 4 weeks treatment, especially short-term treated mice
  colonies in CFUs assay from BM of treated mice: confirmed the expansion of hematopoietic progenitor compartments
[3]; CFUs from BM of treated mice
  lineage of most striking colony increase: most striking in the Mk lineage
[3]; Example 8, FIG. 9B
  progenitor population / total and myeloid colonies in CFUs from BM of treated mice: expanded progenitor population
[4]
  blood recovery of post-transplanted mice (platelets, granulocytes/neutrophils): faster exit of neutropenia and thrombocytopenia
[4]; limiting-dose transplanted mice, all untreated mice died within one month
  survival of transplanted mice: 80%
[4]; transplanted mice, on average
  exit of neutropenia (neutrophils >0.5 G/l) relative to controls: one week before controls
  recovery from severe thrombocytopenia (platelet count >100 G/l) earlier relative to control mice: 10 days
[4]; transplanted mice, peripheral blood counts from day 13
  neutrophil and platelet recovery: faster neutrophil and platelet recovery
[5]; HSCs exposed in vitro, JC1 and TMRM
  mitochondrial activity of HSCs: robust decrease in mitochondrial activity
[5]; dividing HSCs in vitro
  proportion of cells with low mitochondrial activity: raised the proportion of cells with low mitochondrial activity
[5]; in vitro, compared to control conditions
  percentage of cells with high mitochondrial activity: reduces the percentage of cells with high mitochondrial activity to half
[5]; in vitro, control about 5%
  percentage of HSC daughters that maintain a low mitochondrial activity: about 10%
[6]
  asynchronous division: significant increase in asynchronous division
  proliferation kinetics: do not have a major change in their proliferation kinetics
[7]
  human lymphocyte production: significant increase in lymphocyte production
  human monocyte production: trend towards increased monocyte production
[8]; freshly isolated HSC from fed mice, TMRM, FIG. 12
  number of short-term HSCs with low mitochondrial activity: able to push the number of short-term HSCs with low mitochondrial activity very significantly

## IFN-α
[9]; after IFN-α treatment, MitoTracker Deep Red
  ΔΨm levels of quiescent versus cycling HSCs: not significantly different
[9]; subcutaneous injections 48 and 24 hours prior to cell isolation, control ca. 30
  number of cycling (Ki67+) HSCs: ~50%

## Cc1cnc(C(=O)O)c[n+]1[O-] [Acipimox, acipimox, reference compound]
[2]
  short-term HSC activity of transplanted BM from treated donors (blood chimerism): no significant difference
[4]
  blood recovery of post-transplanted mice (platelets, granulocytes/neutrophils): slower platelet and granulocyte recovery

## N#CC(C#N)=NNc1ccc(OC(F)(F)F)cc1 [FCCP, Carbonyl cyanide 4-(trifluoromethoxy)phenylhydrazone]
[10]
  colonies derived from the most primitive cells (CFU-GEMM): concomitant increase
  frequency of colonies derived from the more committed progenitors (Mk, G, M and GM): striking decrease in the frequency of colonies
[11]; 15'000 whole bone marrow cells
  total number of colonies: striking decrease in the total number of colonies
[11]; whole bone marrow cells
  percentage of clonogenic multi-lineage colonies (CFU-GEMMs): increase in the percentage of clonogenic multi-lineage colonies
  percentage of colonies derived from more committed progenitors (M, GM): markedly decreased
[12]
  divisional history (induction of quiescence): all cells in culture are rapidly dividing several times
[13]
  NADH levels: decreased NADH levels
[14]
  long-term multilineage blood reconstitution in recipient mice: dramatically higher levels of long-term multilineage blood reconstitution

## O=C(O)c1cccnc1 [NA, nicotinic acid, reference compound]
[1]
  number of hematopoietic stem cells (ST-HSC / most primitive HSC) by flow cytometry: do not show a significant difference
[3]; Example 8, FIG. 9B
  Megakaryocytes (MkE) colonies: reduction of Megakaryocytes (MkE) colonies
  progenitor population / total and myeloid colonies in CFUs from BM of treated mice: do not show a significant difference in total and myeloid colonies
[8]; mice fed with the compounds
  ability to reduce mitochondrial membrane potential in HSCs: not able to significantly reduce mitochondrial membrane potential in HSCs
